# Test results reported in US9850366B2, “Epdxidized fatty acid alkyl ester plasticizers and methods for making epdxidized fatty acid alkyl ester plasticizers” (Dow Global Technologies LLC, priority 2012, dated 2017).
# How the values were obtained:
# [1] = Solution temperature of PVC in plasticizer (DIN 53408); type: physicochemical; settings: 0.6 g PVC in 15 mL plasticizer, heated at 1° C./min
# Method: In various embodiments, the polymeric resin (such as PVC) has a solution temperature in the above-described plasticizer of less than 180° C., less than 170° C., or less than 160° C., as determined by Deutsches Institut für Normung (“DIN”) standard method 53 408.
# Determine solution temperature in accordance with Deutsches Institut für Normung (“DIN”) 53408. Important test parameters such as the PVC/plasticizer amount and heating rate are optimized to be able to capture differences in solution temperature of different plasticizers in PVC. 0.6 g PVC is accurately weighed in a 20-mL glass vial and 15 mL of plasticizer is added to the PVC. The contents of the glass vial are stirred using a magnetic stirrer and heated using an oil bath at 1° C./min. A thermometer is used to record the temperature of the PVC/plasticizer mixture which is illuminated with a flash-light. When PVC is mixed with a plasticizer, a milky solution is generally obtained. As the temperature of the PVC/plasticizer mixture is raised, the PVC starts to imbibe the plasticizer and becomes translucent. As the temperature is raised further, the PVC particles swell and lose their shape forming a gel. At the solution temperature, a clear solution is obtained.
# [2] = type: physicochemical
# Method: Solubility in PVC is determined according to American Society for Testing and Materials (“ASTM”) method D 3367-98. […] Water solubility of the epoxidized fatty acid alkyl ester is determined according to the procedures described in the Test Methods section, below. Solubility in PVC Measure solubility in PVC according to ASTM D 3367-98. Test parameters, such as the design of centrifuge tubes, soak temperature, soak time, drainage of plasticizer, and centrifuge speed to remove excess plasticizer, are optimized to be able to capture differences in plasticizer absorption and solubilities of different plasticizers in PVC. Centrifuge tubes with a 0.8 mm diameter hole at the bottom are used for the test. […] During the soak time, the plasticizer molecules wet the cell walls of PVC particles and penetrate through it due to its porosity. Once inside, the molecules start filling the void space. After the void space is completely filled with plasticizer, the PVC primary particles start absorbing the plasticizer. This absorption is relatively slow and continues until the primary particles reach saturation limit. It is therefore important to optimize the PVC/plasticizer soaking temperature and time. […] The plasticizer absorbed by PVC is measured from the weight gain of PVC (after accounting for weight gain due to plasticizer absorbed by cotton).
# [3] = Water solubility (water content of plasticizer by Karl Fischer titration after mixing with water); type: physicochemical; settings: Table 1; water uptake of plasticizer at room temperature
# Method: Water Solubility 20 mL of plasticizer is taken in a beaker and mixed with equal volume of distilled water. The mixture is stirred vigorously at room temperature and allowed to settle in a separating funnel. The mixture forms an emulsion which takes approximately 24 hours to form separate layers of organic and aqueous phases. After 48 hours, the two layers are separated. The aqueous layer is drained and the organic layer containing plasticizer and some water is recovered. The organic layer contains water in dissolved form as well as in the fine emulsion form. This layer is centrifuged at 7000 rpm for one hour. This step separates water trapped in the plasticizer in dispersed form. The plasticizer is further analyzed for water content with the help of wet chemistry methods. Carl Fischer titration method is used to determine the water content in plasticizer.
compound,measurement,setting,value
"epoxidized methyl linolenate [CS4, reference compound]",Solution temperature (° C.),[1],98 °C
"CCCCCC1OC1CC1OC1CCCCCCCC(=O)OC (stereo not drawn) [Sample S2, epoxidized methyl linoleate]",Solution temperature (° C.),[1],88 °C
same,Solubility in PVC (g/100 g PVC),[2],244 g/100 g PVC
"CCCCCCCCC1OC1CCCCCCCC(=O)OC (stereo not drawn) [Sample S1, epoxidized methyl oleate]",Solution temperature (° C.),[1],114 °C
same,Water solubility (%),[3],0.68%
"epoxidized methyl linolenate [CS2, reference compound]",Solution temperature (° C.),[1],124 °C
CCCCCCCC[C@H]1O[C@H]1CCCCCCCC(=O)OC(C)C [Sample S7],Solution temperature (° C.),[1],134 °C
same,Solubility in PVC (g/100 g PVC),[2],34.1 g/100 g PVC
"epoxidized methyl linolenate [CS3, reference compound]",Solution temperature (° C.),[1],98 °C
